For assay [1], the target named is T1, human adrenergic-α2C receptor (Homo sapiens, UniProt P18825).
T1 construct: expressed in transfected cells; host or cells: CHO cells, stably transfected; membrane preparation
T1 sequence (P18825 1-462): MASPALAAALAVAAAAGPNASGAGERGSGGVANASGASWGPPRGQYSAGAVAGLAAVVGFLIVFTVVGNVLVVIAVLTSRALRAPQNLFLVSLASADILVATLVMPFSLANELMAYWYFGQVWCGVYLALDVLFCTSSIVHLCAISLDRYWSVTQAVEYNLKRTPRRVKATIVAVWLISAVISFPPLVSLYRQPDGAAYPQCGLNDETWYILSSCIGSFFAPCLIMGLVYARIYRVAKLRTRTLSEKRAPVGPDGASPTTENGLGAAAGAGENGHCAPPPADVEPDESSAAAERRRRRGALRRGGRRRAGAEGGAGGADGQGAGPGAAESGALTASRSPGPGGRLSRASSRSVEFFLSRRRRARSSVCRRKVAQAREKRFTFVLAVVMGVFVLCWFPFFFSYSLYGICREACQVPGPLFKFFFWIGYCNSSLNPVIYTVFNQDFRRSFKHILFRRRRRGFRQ
The assay can be described thus: Radioligand binding experiment for hα2C-adrenoceptor ([3H]raulwolscine). Conditions: [3H]raulwolscine 1 nM, 60 minutes at 25° C.; for IC50: read-out: h-α2C pIC50 (converted). The method, then:
(§1) The interaction of the compounds of Formula (I) with α2C-adrenoceptor receptors was assessed in in vitro radioligand binding experiments. In general, a low concentration of a radioligand with a high binding affinity for a particular receptor or transporter is incubated with a sample of a tissue preparation enriched in a particular receptor or transporter or with a preparation of cells expressing cloned human receptors in a buffered medium. During the incubation, the radioligand binds to the receptor or transporter. When equilibrium of binding is reached, the receptor bound radioactivity is separated from the non-bound radioactivity, and the receptor- or transporter-bound activity is counted. The interaction of the test compounds with the receptor is assessed in competition binding experiments. Various concentrations of the test compound are added to the incubation mixture containing the receptor- or transporter preparation and the radioligand. The test compound in proportion to its binding affinity and its concentration inhibits binding of the radioligand. The radioligand used for […] receptor binding was [^3H]-raulwolscine.
(§2) CHO cells, stabile transfected with human adrenergic-α2A, -α2B or α2C receptor cDNA, were cultured in Dulbecco's Modified Eagle's Medium (DMEM)/Nutrient mixture Ham's F12 (ratio 1:1)(Gibco, Gent-Belgium) supplemented with 10% heat inactivated fetal calf serum (Life Technologies, Merelbeke-Belgium) and antibiotics (100 IU/ml penicillin G, 100 μg/ml streptomycin sulphate, 110 μg/ml pyruvic acid and 100 μg/ml L-glutamine). One day before collection, cells were induced with 5 mM sodiumbutyrate. Upon 80-90% of confluence, cells were scraped in phosphate buffered saline without Ca^2+ and Mg^2+ and collected by centrifugation at 1500×g for 10 minutes. The cells were homogenised in Tris-HCl 50 mM using an Ultraturrax homogenizer and centrifuged for 10 minutes at 23,500×g. The pellet was washed once by resuspension and rehomogenization and the final pellet was resuspended in Tris-HCl, divided in 1 ml aliquots and stored at −70° C.
(§3) Membranes were thawed and re-homogenized in incubation buffer (glycylglycine 25 mM, pH 8.0). In a total volume of 500 μl, 2-10 μg protein was incubated with [^3H]raulwolscine (NET-722) (New England Nuclear, USA) (1 nM final concentration) with or without competitor for 60 minutes at 25° C. followed by rapid filtration over GF/B filter using a Filtermate196 harvester (Packard, Meriden, Conn.). Filters were rinsed extensively with ice-cold rinsing buffer (Tris-HCl 50 mM pH 7.4). Filter-bound radioactivity was determined by scintillation counting in a Topcount (Packard, Meriden, Conn.) and results were expressed as counts per minute (cpm). Non-specific binding was determined in the presence of 1 μM oxymetazoline for hα2A- and hα2B receptors and 1 μM spiroxatrine for hα2C receptors.
(§4) Data from assays in the presence of compound were calculated as a percentage of total binding measured in the absence of test compound. Inhibition curves, plotting percent of total binding versus the log value of the concentration of the test compound, were automatically generated, and sigmoidal inhibition curves were fitted using non-linear regression. The pIC50 values of test compounds were derived from individual curves.

For assay [2], the target named is T2, 5HT-transporter (Homo sapiens, UniProt P31645).
T2 construct: Human platelet membranes (Oceanix Biosciences Corporation, Hanover, Md., USA) were thawed; tissue Oceanix Biosciences Corporation, Hanover, Md., USA; host or cells: human platelet membranes
The assay can be described thus: Binding experiment for the 5HT-transporter ([3H]paroxetine, human platelet membranes). Conditions: [3H]paroxetine 0.5 nM, 60 min at 25° C.; for IC50: read-out: h-5HTT pIC50 (converted). How it is done:
as §1
Human platelet membranes (Oceanix Biosciences Corporation, Hanover, Md., USA) were thawed, diluted in buffer (Tris-HCl 50 mM, 120 mM NaCl and 5 mM KCl) and quickly (max 3 s) homogenised with an Ultraturrax homogenizer. […] Incubation was stopped by rapid filtration of the incubation mixture over GF/B filters, pre-wetted with 0.1% polyethyleneamine, using a Filtermate196 harvester (Packard, Meriden, Conn.). Filters were rinsed extensively with ice-cold buffer and radioactivity on the filters was counted in a Topcount liquid scintillation counter (Packard, Meriden, Conn.). Data were expressed as cpm. Imipramine (at 1 μM final concentration) was used to determine the non-specific binding.
as §4

The target in assay [3] is T3, human adrenergic-α2A receptor (Homo sapiens, UniProt P08913).
T3 construct: expressed in transfected cells; host or cells: CHO cells, stably transfected; membrane preparation
T3 sequence (P08913 1-465): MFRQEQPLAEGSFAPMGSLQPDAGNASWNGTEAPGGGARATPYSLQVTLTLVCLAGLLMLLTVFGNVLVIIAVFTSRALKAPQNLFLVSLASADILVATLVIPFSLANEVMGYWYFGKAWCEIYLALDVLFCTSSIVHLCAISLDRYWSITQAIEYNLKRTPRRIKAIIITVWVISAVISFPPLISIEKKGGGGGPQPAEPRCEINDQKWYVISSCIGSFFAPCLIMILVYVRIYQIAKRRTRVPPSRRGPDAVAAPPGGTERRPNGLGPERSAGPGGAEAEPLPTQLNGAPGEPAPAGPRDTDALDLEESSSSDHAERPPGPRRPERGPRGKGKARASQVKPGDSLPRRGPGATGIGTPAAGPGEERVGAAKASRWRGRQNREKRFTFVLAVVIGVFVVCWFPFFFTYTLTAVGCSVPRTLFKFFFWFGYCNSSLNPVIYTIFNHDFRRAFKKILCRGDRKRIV
The assay can be described thus: Radioligand binding experiment for hα2A-adrenergic receptor ([3H]raulwolscine). As to conditions: [3H]raulwolscine 1 nM, 60 minutes at 25° C.; for IC50: read-out: h-α2A pIC50 (converted). The method, then:
as §1, §2, §3, §4

T2 sequence (P31645 whole entry): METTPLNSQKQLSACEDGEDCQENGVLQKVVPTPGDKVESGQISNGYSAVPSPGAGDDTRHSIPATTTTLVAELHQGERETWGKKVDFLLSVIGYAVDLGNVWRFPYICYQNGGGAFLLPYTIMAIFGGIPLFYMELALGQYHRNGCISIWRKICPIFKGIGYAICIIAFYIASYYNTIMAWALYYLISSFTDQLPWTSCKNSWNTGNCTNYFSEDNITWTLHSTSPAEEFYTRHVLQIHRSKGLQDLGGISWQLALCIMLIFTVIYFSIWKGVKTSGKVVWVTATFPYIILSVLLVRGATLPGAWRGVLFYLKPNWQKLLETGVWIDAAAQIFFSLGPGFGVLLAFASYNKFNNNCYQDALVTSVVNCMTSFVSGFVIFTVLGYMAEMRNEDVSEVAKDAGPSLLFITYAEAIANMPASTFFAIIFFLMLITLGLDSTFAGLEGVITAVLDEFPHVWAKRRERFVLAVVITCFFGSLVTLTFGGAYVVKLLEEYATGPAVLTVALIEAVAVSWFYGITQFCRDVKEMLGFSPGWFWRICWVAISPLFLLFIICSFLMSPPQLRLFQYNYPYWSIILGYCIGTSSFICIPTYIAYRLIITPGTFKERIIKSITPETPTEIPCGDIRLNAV

As to `O=C(NCc1ccc(-n2ccnc(NC3CCN(Cc4ccc5ccccc5c4)CC3)c2=O)cc1)C1CCCO1` (racemic) [1-99], in assay [1], the “h-α2C pIC50” value came out at 8.1. In addition, the “h-5HTT pIC50” value in assay [2] turned out to be 7.7. Further, in assay [3], the “h-α2A pIC50” value was 6.2.

Turning to `NCc1ccc(-n2ccnc(NC3CCN(Cc4ccc5ccccc5c4)CC3)c2=O)cc1` [1-01], the figures for the IC50 in assay [1], in assay [2] and in assay [3] were 20 nM, 20 nM and 200 nM, respectively.

In the case of `NCc1ccc(Cn2ccnc(NC3CCN(Cc4ccc5ccccc5c4)CC3)c2=O)cc1` [1-02], the results for the IC50 in assay [1], in assay [2] and in assay [3] were 12.6 nM, 63.1 nM and 50.1 nM, respectively.

As to `NCCCn1ccnc(NC2CCN(Cc3ccc4ccccc4c3)CC2)c1=O` [1-03], the IC50 in assay [1] is 50.1 nM; in assay [2], 200 nM; in assay [3] it was 200 nM.

On to `CNCCCn1ccnc(NC2CCN(Cc3ccc4ccccc4c3)CC2)c1=O` [1-04], for which the IC50 in assay [1] was 25.1 nM; in assay [2] it was 251 nM; in assay [3], 251 nM.

`CCCNCc1ccc(-n2ccnc(NC3CCN(Cc4ccc5ccccc5c4)CC3)c2=O)cc1` [1-06]: the IC50 in assay [1] is 10 nM; in assay [2] it was 20 nM; in assay [3], 251 nM.

As to `O=c1c(NC2CCN(Cc3ccc4ccccc4c3)CC2)nccn1-c1ccc(CNCCF)cc1` [1-07], the IC50 in assay [1] was 6.31 nM; in assay [2], 7.94 nM; in assay [3], 126 nM.

Consider `O=c1c(NC2CCN(Cc3ccc4ccccc4c3)CC2)nccn1-c1ccc(CNCCF)c(F)c1` [1-08], for which the IC50 in assay [1] was 7.94 nM; in assay [2], 10 nM; in assay [3] it was 126 nM.

With `CCNC(=O)Cc1ccc(-n2ccnc(NC3CCN(Cc4ccc5ccccc5c4)CC3)c2=O)cc1` [1-10], the results for the IC50 in assay [1], in assay [2] and in assay [3] were 31.6 nM, 15.8 nM and 398 nM, respectively.

Turning to `CCCNC(=O)Cc1ccc(-n2ccnc(NC3CCN(Cc4ccc5ccccc5c4)CC3)c2=O)cc1` [1-11], the IC50 was 20 nM in assay [1], 20 nM in assay [2] and 501 nM in assay [3].

Turning to `CN(C)CCCn1ccnc(NC2CCN(Cc3ccc4ccccc4c3)CC2)c1=O` [1-12], the IC50 in assay [1] is 31.6 nM; in assay [2], 251 nM; in assay [3], 200 nM.

Consider `CCCN(C)C(=O)Cn1ccnc(NC2CCN(Cc3ccc4ccccc4c3)CC2)c1=O` [1-13], for which the IC50 in assay [1] was 63.1 nM; in assay [2] it was 2000 nM; in assay [3], 501 nM.

Turning to `CN(CCF)Cc1ccc(-n2ccnc(NC3CCN(Cc4ccc5ccccc5c4)CC3)c2=O)cc1` [1-14], the “h-α2C pIC50” value in assay [1] was 8.1. Besides, the “h-5HTT pIC50” value in assay [2] was 7.8. Also, the “h-α2A pIC50” value in assay [3] is 6.9.

Consider `CN(C)C(=O)Cn1ccnc(NC2CCN(Cc3ccc4ccccc4c3)CC2)c1=O` [1-15], for which the IC50 in assay [1] is 126 nM; in assay [2], 3160 nM; in assay [3], 398 nM.

Take `CN(C(=O)Cn1ccnc(NC2CCN(Cc3ccc4ccccc4c3)CC2)c1=O)C1CCCCC1` [1-16]: the IC50 was 25.1 nM in assay [1], 251 nM in assay [2] and 316 nM in assay [3].

In the case of `CCCCN(Cc1ccccc1)C(=O)Cn1ccnc(NC2CCN(Cc3ccc4ccccc4c3)CC2)c1=O` [1-18], the IC50 was 39.8 nM in assay [1], 79.4 nM in assay [2] and 200 nM in assay [3].

Turning to `O=C(Cn1ccnc(NC2CCN(Cc3ccc4ccccc4c3)CC2)c1=O)NCC(c1ccccc1)c1ccccc1` [1-19], the figures for the IC50 in assay [1], in assay [2] and in assay [3] were 63.1 nM, 79.4 nM and 398 nM, respectively.

Regarding `CCOC(CN(Cc1ccccc1)C(=O)Cn1ccnc(NC2CCN(Cc3ccc4ccccc4c3)CC2)c1=O)OCC` [1-20], the IC50 in assay [1] was 25.1 nM; in assay [2], 100 nM; in assay [3], 398 nM.

On to `COCCN(C)Cc1ccc(-n2ccnc(NC3CCN(Cc4ccc5ccccc5c4)CC3)c2=O)cc1` [1-21], for which the IC50 in assay [1] is 15.8 nM; in assay [2], 15.8 nM; in assay [3] it was 251 nM.

On to `COCCNCc1ccc(-n2ccnc(NC3CCN(Cc4ccc5ccccc5c4)CC3)c2=O)cc1` [1-22], for which the IC50 in assay [1] is 15.8 nM; in assay [2] it was 15.8 nM; in assay [3], 200 nM.

`CCCC(=O)Nc1cccc(-n2ccnc(NC3CCN(Cc4ccc5ccccc5c4)CC3)c2=O)c1` [1-23]: the figures for the IC50 in assay [1], in assay [2] and in assay [3] were 10 nM, 6.31 nM and 39.8 nM, respectively.

In the case of `CCCC(=O)NCc1ccc(-n2ccnc(NC3CCN(Cc4ccc5ccccc5c4)CC3)c2=O)cc1` [1-24], the IC50 in assay [1] was 25.1 nM; in assay [2] it was 6.31 nM; in assay [3] it was 316 nM.

Regarding `CCCC(=O)NCc1ccc(-n2ccnc(NC3CCN(Cc4ccc5ccccc5c4)CC3)c2=O)cc1OC` [1-25], the IC50 in assay [1] was 39.8 nM; in assay [2], 12.6 nM; in assay [3], 631 nM.

`CC(CC(=O)NCc1ccc(-n2ccnc(NC3CCN(Cc4ccc5ccccc5c4)CC3)c2=O)cc1)CC(C)(C)C` (stereo not shown) [1-27]: the IC50 in assay [1] is 63.1 nM; in assay [2] it was 20 nM; in assay [3] it was 631 nM.

Take `O=C(CC1CCCC1)NCc1ccc(-n2ccnc(NC3CCN(Cc4ccc5ccccc5c4)CC3)c2=O)cc1` [1-28]: in assay [1], the “h-α2C pIC50” value worked out at 7.5. For the same compound, the “h-5HTT pIC50” value in assay [2] was found to be 8.1. The “h-α2A pIC50” value in assay [3] was determined as 6.3.

Consider `O=c1c(NC2CCN(Cc3ccc4ccccc4c3)CC2)nccn1-c1ccc(CNCC2CCCO2)cc1` (stereo not shown) [1-79b], for which the IC50 in assay [1] is 6.31 nM; in assay [2], 2.51 nM.

In the case of `O=C1c2ccccc2C(=O)N1CC#CCn1ccnc(NC2CCN(Cc3ccc4ncccc4c3)CC2)c1=O` [9-11], the IC50 in assay [1] is 12.6 nM.

For the compound `O=C1c2ccccc2C(=O)N1CC#CCn1ccnc(NC2CCN(Cc3ccc4ncccc4c3)CC2)c1=O` [9-30], the IC50 in assay [1] was 31.6 nM.
